Tested on: cs-oxidant-induced albumin oxidation
Test: Protection of cs-oxidant-induced albumin oxidation by chemical agents
Assay type: biochemical, bovine
Conditions: for inhibition of BSA oxidation: concentration ranging between 500 μM and 1 mM
Procedure: The incubation system contained 1 mg BSA and 50 μl of cs solution or its equivalent amounts obtained at different stages of purification in a final volume of 200 μl of 50 mM potassium phosphate buffer, pH 7.4. The incubation was carried out at 37° C. for 1 hour. Protein carbonyl was measured by reaction with 2,4-dinitrophenyl hydrazine (DNPH) following the method of Levine et al (Methods Enzymol. 186: 464-478, 1990) similar to that done before in our laboratory (Panda et al., Free Radic. Biol. & Med. 27: 1064-1079, 1999). […] To this washed pellet was then added 500 μl of 10 mM DNPH solution in 2M HCl and incubated at 37° C. for 1 h with occasional vortexing. Thereafter, the protein was again precipitated with 500 μl of cold 20% trichloroacetic acid solution and the pellet was first washed with 500 μl of 10% trichloroacetic acid solution followed by three successive washes with 1 ml of a mixture of ethanol: ethyl acetate (1:1, v/v). Finally, the washed precipitate was dissolved in 1 ml of 6M guanidium hydrochloride (pH 2.3) and the absorbance was measured at 390 nm using a double beam Hitachi spectrophotometer model U 3020 against a reagent blank of 2M HCl. The results were expressed as n moles of phenylhydrazones formed per milligram protein using a molar extinction coefficient of 22,000.
The chemical compounds/agents include, besides ascorbic acid, tartaric acid, citric acid, oxalic cid, glutathione, tea extract and individual components of tea (Table. 4).
The incubation system and carbonyl estimation are described in the text.

O=C1O[C@H]([C@@H](O)CO)C(O)=C1O [Ascorbic acid]
% Protection (agent 100 μM): 76%
% Protection (agent 100 μM, listed as ascorbic acid): up to 76%

O=C(O)CC(O)(CC(=O)O)C(=O)O [Citric acid]
% Protection (agent 500 μM): 67%
% Protection (agent 1 mM): 75%
inhibition of BSA oxidation: up to 75%

Oc1cc(O)c2c(c1)O[C@H](c1cc(O)c(O)c(O)c1)[C@H](O)C2 [Epigallocatechin]
% Protection (agent 140 μg): 95%
% Protection (agent 140 μg, listed as epigallocatechin): up to 95%

N[C@@H](CCC(=O)N[C@@H](CS)C(=O)NCC(=O)O)C(=O)O [Glutathione]
% Protection (agent 1 mM): 37%
% Protection (agent 1 mM, listed as glutanthione): up to 37%

N[C@@H](Cc1c[nH]cn1)C(=O)O [Histidine]
% Protection (agent 1 mM): 67%
% Protection (agent 1 mM, listed as histidine): up to 67%

NCCCC[C@H](N)C(=O)O [Lysine]
% Protection (agent 1 mM): 35%
% Protection (agent 1 mM, listed as lysine): up to 35%

O=C(O)C(=O)O [Oxalic acid]
% Protection (agent 500 μM): 53%
% Protection (agent 500 μM, listed as oxalic acid): up to 53%

O=C(O)CCC(=O)O [Succinic acid]
% Protection (agent 1 μM (so in the source)): 60%
% Protection (agent 1 mM): 60%
% Protection (agent 1 mM, listed as succinic acid): up to 60%

O=C(O)C(O)C(O)C(=O)O (centres unmarked) [Tartaric acid]
% Protection (agent 500 μM): 67%
% Protection (agent 1 mM): 75%
inhibition of BSA oxidation: up to 75%

Catechin
% Protection (agent 750 μg): 54%
% Protection (agent 750 μg, listed as catechin): up to 54%
